Experimental data published in patent publication US9107926B2, “Mutant selectivity and combinations of a phosphoinositide 3-kinase inhibitor compound and chemotherapeutic agents for the treatment of cancer” (Genentech, Inc., priority 2012, dated 2015).

What was measured:
Assay in all cases: CellTiter-Glo cell proliferation assay
Type in all cases: cell-based
H82 = details: Homo sapiens, NCI-H82, Lung(SC), PTEN
HOP62 = details: Homo sapiens, HOP-62, Lung(NSCLC), K-RAS
SW948 = details: Homo sapiens, Colon, KRAS/HOM.542E > K
IPC298 = details: Homo sapiens, IPC-298, Melanoma, NRAS Q61L
H292 = details: Homo sapiens, NCI-H292, Lung(NSCLC), K-RAS
H650 = details: Homo sapiens, NCI-H650, Lung(NSCLC), K-RAS
H358 = details: Homo sapiens, NCI-H358, Lung(NSCLC), K-RAS
SW620 = details: Homo sapiens, SW-620, Colon, K-RAS

Cc1nc(-c2cn3c(n2)-c2ccc(-c4cnn(C(C)(C)C(N)=O)c4)cc2OCC3)n(C(C)C)n1 [GDC-0032, 2-(4-(2-(1-isopropyl-3-methyl-1H-1,2,4-triazol-5-yl)-5,6-dihydrobenzo[f]imidazo[1,2-d][1,4]oxazepin-9-yl)-1H-pyrazol-1-yl)-2-methylpropanamide]
EC50 (H82): 10 µM
EC50 (HOP62): 3.09 µM
EC50 (SW948): 0.062 µM
EC50 (IPC298): 10 µM
EC50 (H292): 0.274 µM
EC50 (H650): 10 µM
EC50 (H358): 0.22 µM
EC50 (SW620): 10 µM
